Entries after “also recorded” stand apart in the source; their conditions may differ.
Legend:
[1] = test system: monoacylglycerol lipase (MAGL); conditions: De Petrocellis et al., 2011; cited from earlier work
[2] = test system: endocannabinoid cellular reuptake; conditions: Ligresti et al., 2006; cited from earlier work
[3] = molecular target: transient receptor potential (TRP) ankyrin 1-type (TRPA1) channels (Rattus norvegicus, UniProt Q6RI86); conditions: De Petrocellis et al., 2008; 2011; cited from earlier work
[4] = test system: Poly(I:C)-induced ARDS in C57BL/6 mice; test: Poly(I:C)-induced ARDS mouse model, CBC treatment
Protocol: Animal model and application of Poly(I:C) and CBC: Wild-type (WT) C57BL/6 mice (male, 12 weeks old) were divided into 3 experimental groups of sham, control and treatment (n=5). […] All mice were anesthetized with isoflurane. Sham group received PBS while control and treatment groups were administered by Poly(I:C) (Sigma Aldrich, USA) (100 μg in 50 μl sterile PBS) intranasally (I/N) three once-daily doses. CBC (isolate THC free) was delivered intraperitoneally (5mg/kg), first dose two hours after the second Poly(I:C) treatment and every other day interval, total of 3 doses. Sham and control groups received PBS only. All mice were sacrificed at 8 days after the first Poly(I:C) application. Blood and lung tissues were harvested and subjected to the further analysis.
Measurement of vital signs: Vital signs including temperature, Blood O2 saturation were measured prior and post of any treatment. Central body temperature was measured rectally and blood oxygen saturation was determined using portable pulse oximetry through carotid arteries.
Histology and immunohistochemistry: Left lobes of lung tissue were fixed in 10% neutral buffered formalin. Samples were processed by routine methods, oriented so as to provide coronal sections and 5 micron mid-coronal sections cut and stained with hematoxylin & eosin, Trichrome for histology. As for inflammatory indices, immunohistochemistry was performed by incubating the samples with specific antibodies against murine IL-6 (Cat #554402, BD BioSciences Pharmingen) and Neutrophils (Cat #G102, Leinco Technologies). Preparations were counterstained with hematoxylin (catalog no. 7221; Richard-Allan Scientific, Kalamazoo, MI, USA) and mounted in Faramount (catalog no. S3025, DAKO), analyzed and imaged by brightfield microscopy.
Analytical Flow Cytometry: Single cell suspension was prepared from lung tissues. Briefly, tissue samples were sieved through a 100 μM cell strainer (BD Biosciences, San Diego, CA), followed by centrifugation (1,000 rpm, 10 min) to prepare single-cell suspensions. All cells were then stained with fluorescent antibodies to quantify neutrophils, macrophages, lymphocytes and cytokine expression. Briefly, all cells were stained with anti-Gr1 (Neutrophils), Anti-F4/80 (Macrophages), and anti-CD3/CD4/CD8 (Lymphocytes, all from Biolegend USA). Then cells were fixed and permeabilized and stained intracellularly for cytokines including IL-6, TNFα, IL-2, and IFNγ (Proinflammatory cytokines). All samples were run through a 4-Laser LSR II flow cytometer. Cells were gated based on forward and side scatter properties and on marker combinations to select cells of interest. All acquired flow cytometry data were analyzed using the FlowJo V10.
Statistical analysis: Graphs and summary statistics were also used to assess the results. All statistical tests were 2-sided. Except for where noted, all p-values presented are unadjusted for multiple comparisons.

[5] = test system: Poly(I:C)-induced ARDS in C57BL/6 mice; test: Poly(I:C)-induced ARDS mouse model, CBD treatment
Protocol: Animal model and application of Poly(I:C) and CBC: Adult (12 weeks) male C57B1/6 mice were block randomized into one of three experimental groups (n=10 mice/group) by a blinded investigator. Group I received intranasal, once daily administration of sterile saline for three consecutive days to serve as a control. Group II received intranasal, once daily administration of Poly I:C (100 μg in 50 μL in sterile saline) for three consecutive days to mimic ARDS. Group III received intranasal, once daily administration of Poly I:C (100 μg in 50 μL in sterile saline) for three consecutive days, with intraperitoneal administration of CBD (isolate CBD, THC-free, 5 mg/kg body weight, Canabidiol Ltd, Dublin, Ireland), first dose two hours after the second Poly(I:C) treatment and every other day for a total of 3 doses to the treatment group. Blood oxygen saturation was quantified via the carotid arteries using a portable pulse oximeter at study initiation (day 0) and once daily for the duration of the study. Mice were euthanized at study day nine. Blood and lung tissue were harvested and subjected to flow cytometry, immunofluorescence and histological analysis, as detailed above. All flow cytometry data were analysed using the FlowJo V10 software while immunofluorescence, and histological preparations were analysed and imaged by fluorescence and bright field microscopy. As for additional histological evaluation, Masson's Trichrome staining was used for the detection of collagen fibres in lung on formalin-fixed, paraffin-embedded sections. The collagen fibres stained in blue and the background is stained red. Sections were examined and analysed using bright field microscopy imaging.

[6] = blood, vs untreated counterparts, p<0.01
[7] = lung tissue, PIC+CBC vs sham or PIC
[8] = lung, vs untreated counterparts, p<0.01
[9] = lung tissue, CBD after Poly(I:C)
[10] = whole blood, CBD 5 mg/kg intraperitoneal, 3 doses, after Poly(I:C)

Chain of transient receptor potential (TRP) ankyrin 1-type (TRPA1) channels (Q6RI86 whole entry): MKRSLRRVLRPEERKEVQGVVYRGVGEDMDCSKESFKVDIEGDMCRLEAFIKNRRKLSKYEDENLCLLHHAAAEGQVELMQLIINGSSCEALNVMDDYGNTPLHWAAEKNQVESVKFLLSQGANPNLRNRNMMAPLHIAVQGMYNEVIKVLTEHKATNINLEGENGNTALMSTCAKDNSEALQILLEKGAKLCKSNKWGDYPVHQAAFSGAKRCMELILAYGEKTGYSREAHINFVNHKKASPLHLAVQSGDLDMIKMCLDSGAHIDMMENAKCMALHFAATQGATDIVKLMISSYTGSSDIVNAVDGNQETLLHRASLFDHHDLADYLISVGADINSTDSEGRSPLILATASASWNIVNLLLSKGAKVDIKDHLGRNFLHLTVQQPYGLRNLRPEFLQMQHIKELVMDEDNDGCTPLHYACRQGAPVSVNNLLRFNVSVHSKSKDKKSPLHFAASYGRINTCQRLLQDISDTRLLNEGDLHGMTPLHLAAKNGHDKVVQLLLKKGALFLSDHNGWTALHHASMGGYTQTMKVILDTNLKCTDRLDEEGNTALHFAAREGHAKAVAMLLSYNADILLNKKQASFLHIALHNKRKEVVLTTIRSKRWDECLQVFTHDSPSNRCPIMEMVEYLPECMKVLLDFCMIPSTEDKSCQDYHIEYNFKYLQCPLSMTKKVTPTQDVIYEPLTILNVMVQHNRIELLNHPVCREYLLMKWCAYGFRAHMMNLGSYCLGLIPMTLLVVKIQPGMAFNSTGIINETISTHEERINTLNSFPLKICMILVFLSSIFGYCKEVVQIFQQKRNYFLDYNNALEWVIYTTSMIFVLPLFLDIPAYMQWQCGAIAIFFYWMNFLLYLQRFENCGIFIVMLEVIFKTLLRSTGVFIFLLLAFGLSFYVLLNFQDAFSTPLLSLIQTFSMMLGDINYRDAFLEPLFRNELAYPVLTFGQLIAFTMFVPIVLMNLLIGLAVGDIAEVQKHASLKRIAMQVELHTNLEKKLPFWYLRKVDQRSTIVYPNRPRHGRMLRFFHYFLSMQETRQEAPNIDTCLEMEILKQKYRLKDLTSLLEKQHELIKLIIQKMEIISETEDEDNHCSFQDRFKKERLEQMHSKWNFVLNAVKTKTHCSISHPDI

SMILES | inhibition of monoacylglycerol lipase (MAGL) [1] | inhibition of endocannabinoid cellular reuptake [2] | activation of TRPA1 channels [3] | increase in blood oxygen saturation ([4]; Poly(I:C) mice, CBC treated vs untreated PIC) [%] | blood oxygen saturation after CBC treatment ([4]; Poly(I:C) mice, pulse oximetry, untreated PIC group 90%) [%] | IFNγ expression level in blood (flow cytometry) [4, 6] | IL-6 expression level in blood (flow cytometry) [4, 6] | IL-17 expression level in blood (flow cytometry) [4, 6] | lung histology (H&E, Masson's trichrome): structural damage, hypertrophy and fibrosis ([4]; lung tissue, PIC+CBC vs PIC) | TRPA1 expression in lung tissue (immunohistochemistry) [4, 7] | TRPV1 expression in lung tissue (immunohistochemistry) [4, 7] | IFNγ expression level in lung (flow cytometry) [4, 8] | IL-6 expression level in lung (flow cytometry) [4, 8] | IL-17 expression level in lung (flow cytometry) [4, 8] | apelin expression in lung tissue (immunofluorescence) [5, 9] | lung histology (Masson's trichrome): inflammatory infiltrate, fibrosis, hypertrophy, pulmonary oedema [5, 9] | apelin expression in blood (flow cytometry) [5, 10] | blood T cells (flow cytometry) [5, 10] | blood neutrophils (flow cytometry) [5, 10]
CCCCCc1cc(O)c2c(c1)OC(C)(CCC=C(C)C)C=C2 (stereo not shown) [CBC, cannabichromene] | weak inhibitor | inhibitor of endocannabinoid cellular reuptake | potent activator | 8 | 98 | curtailed the expression levels | curtailed the expression levels | curtailed the expression levels | reduced hypertrophy and fibrosis | increased the level of expression | increased the level of expression | curtailed the expression levels | curtailed the expression levels | curtailed the expression levels | – | – | – | – | –
C=C(C)[C@@H]1CCC(C)=C[C@H]1c1c(O)cc(CCCCC)cc1O [CBD, cannabidiol] | – | – | – | – | – | – | – | – | – | – | – | – | – | – | increased apelin expression towards control levels; also recorded: normalized the Apelin expression | completely or partially abolished; also recorded: improved the structure towards the normal architecture | enhanced expression of apelin; also recorded: normalized the expression level of apelin; also recorded: attenuated these effects | returned decreased T cells and increased neutrophils towards the normal level | returned decreased T cells and increased neutrophils towards the normal level

— patent publication US20260097051A1, “CANNA[…] A T[…] FOR COVID-19” (AUGUSTA UNIVERSITY RESEARCH INSTITUTE, INC., priority 2021, published 2026)
